In ChEMBL document CHEMBL1155373, “Triterpene compounds isolated from Acer mandshuricum and their anti-inflammatory activity” (Bioorg Med Chem Lett, 2010):

Key:
HL-60 = assay: Growth inhibition of human HL60 cells by MTT assay; assay type: functional
SK-OV-3 = assay: Growth inhibition of human SKOV3 cells by MTT assay; assay type: functional
A549 = assay: Growth inhibition of human A549 cells by MTT assay; assay type: functional
HT-29 = assay: Growth inhibition of human HT-29 cells by MTT assay; assay type: functional
RAW264.7 = assay: Antiinflammatory activity in mouse RAW264.7 cells assessed as inhibition of LPS-stimulated TNFalpha production at 100 nM pretreated 1 hr before LPS challenge measured after 24 hrs by sandwich ELISA relative to control; assay type: functional
A2780 = assay: Cytotoxicity against human A2780 cells; assay type: functional, cell-based

Compound	GI50 (HL-60) [µM]	GI50 (SK-OV-3) [µM]	GI50 (A549) [µM]	GI50 (HT-29) [µM]	inhibition at 0.1 µM (RAW264.7) [%]	IC50 (A2780) [µg/mL]
CC(=O)O[C@H]1CC[C@@]2(C)[C@@]3(OC[C@@H](OO3)[C@]3(C)[C@@]2(C)CC[C@@]2(C)[C@@H]4CC(C)(C)CC[C@]4(C)CC[C@]32C)C1(C)C [ACERANOL ACETATE]	13.7	12.8	11.4	14.6	21	
O=C1c2c(O)ccc(O)c2C(=O)c2c(NCCNCCO)ccc(NCCNCCO)c21 [MITOXANTRONE]	7.8	11	8.3	8.9		
C[C@H]1C(=O)CC[C@@H]2[C@]1(C)CC[C@H]1[C@@]2(C)CC[C@@]2(C)[C@@H]3CC(C)(C)CC[C@]3(C)CC[C@]12C [FRIEDELINE]	12.2	12.7	11.1	13.5	23.5	
CC(=O)O[C@H]1CC[C@@H]2C(=CC[C@H]3[C@@]2(C)CC[C@@]2(C)[C@@H]4CC(C)(C)CC[C@]4(C)CC[C@]32C)C1(C)C [GLUTINOL ACETATE]	16.2	12.1	17.9	16.3	25.4	

More lines, main results first:

GI50 (HL-60) [µM]	GI50 (SK-OV-3) [µM]	GI50 (A549) [µM]	GI50 (HT-29) [µM]	Compound	inhibition at 0.1 µM (RAW264.7) [%]	IC50 (A2780) [µg/mL]
50.8	29.8	35.5	46.8	CC[C@H](CC[C@@H](C)[C@H]1CC[C@H]2[C@@H]3CC=C4C[C@@H](O[C@@H]5O[C@H](CO)[C@@H](O)[C@H](O)[C@H]5O)CC[C@]4(C)[C@H]3CC[C@]12C)C(C)C [SITOGLUSIDE]	29.3	
14.6	14.6	11.4	12.5	CC(=O)O[C@H]1CC[C@]2(C)[C@H]3CC=C4[C@@H]5CC(C)(C)CC[C@]5(C)CC[C@@]4(C)[C@]3(C)CC[C@H]2C1(C)C [beta-AMYRIN ACETATE]	38.4	12.5
16	12.6	11.6	14.1	CC1(C)CC[C@]2(C)CC[C@]3(C)[C@H]4CC=C5[C@@H](CC[C@H](O)C5(C)C)[C@]4(C)CC[C@@]3(C)[C@@H]2C1 [GLUTINOL]	16.9	
